SMILES strings stand for the structures. Active and inactive are the calls of the source. No cut-off for these calls is given here.

The test system of assay [1] is Huh-7. In words: Induction of autophagy in human Huh-7 cells assessed as rescue of mTOR phosphorylation level at upto 10 nM incubated for 48 hrs in presence of gamabufotalin by immunoblot method. The assay is classed as functional, cell-based.
Assay [2] has as its system Huh-7. Kind of assay: Induction of apoptosis in human Huh-7 cells assessed as increase in cleaved caspase-3 level at 10 nM incubated for 48 hrs in presence of gamabufotalin by immunoblot analysis. Type of assay: functional, cell-based. A general note: In western blotting, separated proteins are transferred to a membrane and probed.
The subject of assay [3] is Hep 3B2. Kind of assay: Induction of apoptosis in human Hep3B cells assessed as viable cells at 10 nM incubated for 48 hrs by Annexin V-FITC/PI staining based flow cytometry method (reference value: 94.0%). Type of assay: functional. As to conditions: read-out: Activity. On the technique in general: In flow cytometry, cells or beads pass a laser one at a time.
The subject of assay [4] is Hep 3B2. In words: Induction of apoptosis in human Hep3B cells assessed as late apoptotic cells at 10 nM incubated for 48 hrs by Annexin V-FITC/PI staining based flow cytometry method (reference value: 3.5%). The assay is classed as functional.
For assay [5], the system named is Hep 3B2. In words: Induction of apoptosis in human Hep3B cells assessed as necrotic cells at 10 nM incubated for 48 hrs in presence of gamabufotalin by Annexin V-FITC/PI staining based flow cytometry method (reference value: 1.2%). The assay is classed as functional.
The test system of assay [6] is Huh-7. Kind of assay: Induction of autophagic flux in human Huh-7 cells harbouring mCherry-egfp-LC3 assessed as reduction in number of yellow puncta ratio at 10 nM incubated for 15 mins in presence of gamabufotalin by laser scanning confocal microscopic analysis. Type of assay: functional, cell-based.
For assay [7], the system named is Huh-7. Kind of assay: Induction of apoptosis in human Huh-7 cells assessed as late apoptotic cells at 10 nM incubated for 48 hrs by Annexin V-FITC/PI staining based flow cytometry method (reference value: 4.7%). Type of assay: functional.
The test system of assay [8] is Hep 3B2. In words: Induction of apoptosis in human Hep3B cells assessed as viable cells at 10 nM incubated for 48 hrs in presence of gamabufotalin by Annexin V-FITC/PI staining based flow cytometry method (reference value: 94.0%). Type of assay: functional. As to conditions: read-out: Activity.
Assay [9] relates to Huh-7. In words: Induction of apoptosis in human Huh-7 cells assessed as necrotic cells at 25 nM incubated for 48 hrs by Annexin V-FITC/PI staining based flow cytometry method (reference value: 1.0%). Type of assay: functional.
For assay [10], the system named is Huh-7. Kind of assay: Induction of autophagy in human Huh-7 cells assessed as upregulation of p62 at 25 uM incubated for 48 hrs in presence of 4,6-dimorpholino-N-(4-nitrophenyl)-1,3,5-triazin-2-amine by immunoblot analysis. The assay is classed as functional, cell-based.
For assay [11], the system named is Hep 3B2. Kind of assay: Antitumor activity against human Hep3B cells xenografted in nude mouse model assessed as decrease in tumor volume at 5 mg/kg,ip administered every second day for 3 weeks by vernier caliper method. Type of assay: functional, organism-based. In general terms: In xenograft studies the graft and the host belong to different species.
In assay [12] the test system is Huh-7. In words: Induction of apoptosis in human Huh-7 cells assessed as increase in cleaved PARP expression at upto 25 nM incubated for 48 hrs by Western blot analysis. The assay is classed as functional, cell-based.
For assay [13], the system named is Huh-7. In words: Induction of apoptosis in human Huh-7 cells assessed as early apoptotic cells at 15 nM incubated for 48 hrs by Annexin V-FITC/PI staining based flow cytometry method (reference value: 1.7%). Type of assay: functional.
Assay [14] deals with Hep 3B2. Kind of assay: Induction of autophagy in human Hep3B cells harbouring mCherry-egfp-LC3 assessed as reduction in red puncta ratio at 25 nM incubated for 15 mins in presence of 4,6-dimorpholino-N-(4-nitrophenyl)-1,3,5-triazin-2-amine by laser scanning confocal microscopic analysis. Type of assay: functional, cell-based.
Assay [15] concerns Huh-7. In words: Induction of apoptosis in human Huh-7 cells assessed as viable cells at 25 nM incubated for 48 hrs by Annexin V-FITC/PI staining based flow cytometry method (reference value: 90.0%). Type of assay: functional. As to conditions: read-out: Activity.
The subject of assay [16] is Huh-7. In words: Induction of apoptosis in human Huh-7 cells assessed as early apoptotic cells at 25 nM incubated for 48 hrs in presence of 4,6-dimorpholino-N-(4-nitrophenyl)-1,3,5-triazin-2-amine by Annexin V-FITC/PI staining based flow cytometry method (reference value: 4.3%). Type of assay: functional.
For assay [17], the system named is Hep 3B2. Kind of assay: Induction of apoptosis in human Hep3B cells assessed as […] expression at upto 25 nM incubated for 48 hrs by Western blot analysis. Type of assay: functional, cell-based.
Assay [18] relates to Hep 3B2. Kind of assay: Induction of apoptosis in human Hep3B cells assessed as increase in PARP expression at upto 25 nM incubated for 48 hrs by Western blot analysis. The assay is classed as functional, cell-based.
Assay [19] relates to Huh-7. In words: Induction of apoptosis in human Huh-7 cells assessed as viable cells at 25 nM measured after 48 hrs by annexin V-FITC/Propidium iodide staining based flow cytometric analysis (reference value: 91.7%). Type of assay: functional. The following applies: read-out: Activity.
Assay [20] deals with Huh-7. In words: Induction of apoptosis in human Huh-7 cells assessed as late apoptotic cells at 25 nM incubated for 48 hrs in presence of chloroquine by Annexin V-FITC/PI staining based flow cytometry method (reference value: 4.7%). Type of assay: functional.
Assay [21] relates to Hep 3B2. In words: Antitumor activity against human Hep3B cells xenografted in nude mouse model assessed as reduction in Ki-67 index at 5 mg/kg,ip administered every second day for 3 weeks by immunohistochemical analysis. Type of assay: functional, organism-based.
Assay [22] has as its system Huh-7. Kind of assay: Induction of autophagic flux in human Huh-7 cells assessed as decrease in p62 expression at upto 25 nM incubated for 48 hrs by Western blot analysis. Type of assay: functional, cell-based.
The subject of assay [23] is Huh-7. In words: Induction of apoptosis in human Huh-7 cells assessed as increase in cleaved bax level at 25 nM incubated for 48 hrs in presence of chloroquine by immunoblot analysis. Type of assay: functional, cell-based.
Assay [24] relates to Hep 3B2. Kind of assay: Induction of autophagic flux in human Hep3B cells harbouring mCherry-egfp-LC3 assessed as reduction in number of yellow puncta ratio at 25 nM incubated for 15 mins in presence of chloroquine by laser scanning confocal microscopic analysis. The assay is classed as functional, cell-based.
Assay [25] has as its system Huh-7. In words: Induction of autophagy in human Huh-7 cells assessed as rescue of ULK1 phosphorylation level at upto 25 nM incubated for 48 hrs in presence of chloroquine by immunoblot method. The assay is classed as functional, cell-based.
Assay [26] deals with Hep 3B2. Kind of assay: Induction of autophagy in human Hep3B cells assessed as rescue of mTOR phosphorylation level at upto 25 nM incubated for 48 hrs in presence of chloroquine by immunoblot method. Type of assay: functional, cell-based.
In assay [27] the test system is Hep 3B2. Kind of assay: Induction of autophagic flux in human Hep3B cells assessed as rescue of LC3-I accumulation at 25 uM incubated for 48 hrs in presence of chloroquine by Western blot analysis. Type of assay: functional, cell-based.
Assay [28] deals with Hep 3B2. In words: Antitumor activity against human Hep3B cells xenografted in nude mouse model assessed as downregulation of m-TOR phosphorylation expression expression at 5 mg/kg,ip administered every second day for 3 weeks by Western blot analysis. Type of assay: functional, organism-based.
The test system of assay [29] is Huh-7. In words: Induction of morphological changes in human Huh-7 cells assessed as round cell morphology at upto 25 nM incubated for 48 hrs by bright field imaging analysis. The assay is classed as functional, cell-based.
Assay [30] relates to Hep 3B2. In words: Antitumor activity against human Hep3B cells xenografted in nude mouse model assessed as upregulation of LC3I expression at 5 mg/kg,ip administered every second day for 3 weeks by Western blot analysis. The assay is classed as functional, organism-based.
The test system of assay [31] is Huh-7. Kind of assay: Induction of autophagic flux in human Huh-7 cells harbouring mCherry-egfp-LC3 assessed as reduction in number of yellow puncta ratio at 25 nM incubated for 15 mins in presence of chloroquine by laser scanning confocal microscopic analysis. Type of assay: functional, cell-based.
Assay [32] concerns Hep 3B2. In words: Induction of apoptosis in human Hep3B cells assessed as increase in cleaved bax level at 25 nM incubated for 48 hrs in presence of chloroquine by immunoblot analysis. The assay is classed as functional, cell-based.
Assay [33] relates to Hep 3B2. In words: Induction of apoptosis in human Hep3B cells assessed as necrotic cells at 25 nM incubated for 48 hrs in presence of chloroquine by Annexin V-FITC/PI staining based flow cytometry method (reference value: 1.2%). Type of assay: functional.

For the compound `CCN(CC)CCCC(C)Nc1ccnc2cc(Cl)ccc12` (stereo not drawn) [CHLOROQUINE], the outcome in assay [1], in assay [2] and in [6] was Active. In addition, the viability at 0.01 µM came out at 93.6% in [3] and 63.9% in assay [8]. Also, the figures for the Activity in [4], in assay [5] and in assay [7] were 4.4%, 0.8% and 4.9%, respectively.
As for `C[C@]12CC[C@H](O)C[C@H]1CC[C@@H]1[C@@H]2[C@H](O)C[C@]2(C)[C@@H](c3ccc(=O)oc3)CC[C@]12O` [GAMABUFOTALIN], the Activity in [9] is given as 1.1%; in assay [13] it was 4%; in [16] it was 14.9%; in [20], 19.1%; in assay [33] it was 0.8%. The outcome in [10], in assay [11], in assay [12], in assay [14], in [17] and in assay [18] was Active. The result in assay [21], in [22], in assay [23], in [24], in assay [25] and in assay [26] was Active. In addition, the outcome in assay [27], in assay [28], in [29], in [30], in assay [31] and in assay [32] was Active. For the same compound, the figures for the viability at 0.025 µM in [15] and in assay [19] were 81.5% and 72%, respectively.

For the origin of these results see ChEMBL document CHEMBL5257089, “Gamabufotalin Induces Apoptosis and Cytoprotective Autophagy through the mTOR Signaling Pathway in Hepatocellular Carcinoma” (J Nat Prod, 2023).
